According to PMC5378956, “Inhibition of delta-secretase improves cognitive functions in mouse models of Alzheimer's disease” (Nature Communications, 2017):
Read-outs that look alike come from different tables or passages of the source.

How the values were obtained:
[1] = target: CYP2C9 (Homo sapiens, UniProt P11712); assay: CYP inhibition screening in microsomes; details: pH 7.4
[2] = target: T1, δ-secretase (Homo sapiens, UniProt Q99538); assay: IC50 assay with purified recombinant δ-secretase (AEP), substrate Cbz-Ala-Ala-Asn-AMC; type: biochemical
T1 construct: tested with purified active δ-secretase, IC50 values for the top 8 candidates were calculated; purchased Sino Biological (Beijing, China)
T1 sequence (Q99538 18-323 limits assumed): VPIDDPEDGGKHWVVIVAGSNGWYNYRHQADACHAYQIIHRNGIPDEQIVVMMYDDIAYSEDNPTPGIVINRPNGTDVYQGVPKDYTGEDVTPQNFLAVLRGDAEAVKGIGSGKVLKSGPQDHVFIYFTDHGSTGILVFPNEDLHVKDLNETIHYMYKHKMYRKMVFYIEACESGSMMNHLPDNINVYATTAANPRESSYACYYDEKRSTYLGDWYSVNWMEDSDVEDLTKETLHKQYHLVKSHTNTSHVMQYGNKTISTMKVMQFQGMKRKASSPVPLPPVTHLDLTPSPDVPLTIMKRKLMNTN
Description: δ-secretase – 50 nM enzyme was pre-incubated with inhibitor in assay buffer (50 mM Sodium Citrate pH 5.5, 0.1% CHAPS, 60 mM Na2HPO4, 1 mM EDTA) for 10 min at 37 °C. The reaction was initiated on addition of 10 μM Cbz-Ala-Ala-Asn-AMC (Bachem).
(§1) To determine the IC50 values of the compounds towards δ-secretase, cathepsin-S, cathepsin-L, caspase-3 and caspase-8, purified recombinant enzyme was incubated in appropriate assay buffers in the presence of increasing concentrations of inhibitors. The formation of fluorescent product was monitored in duplicate reactions and the data were fit to appropriate equations to calculate the IC50 values.

[3] = target: T2, δ-secretase in Pala cells (Homo sapiens, UniProt Q99538); assay: δ-secretase inhibition in intact Pala cells
T2 sequence (Q99538 18-433): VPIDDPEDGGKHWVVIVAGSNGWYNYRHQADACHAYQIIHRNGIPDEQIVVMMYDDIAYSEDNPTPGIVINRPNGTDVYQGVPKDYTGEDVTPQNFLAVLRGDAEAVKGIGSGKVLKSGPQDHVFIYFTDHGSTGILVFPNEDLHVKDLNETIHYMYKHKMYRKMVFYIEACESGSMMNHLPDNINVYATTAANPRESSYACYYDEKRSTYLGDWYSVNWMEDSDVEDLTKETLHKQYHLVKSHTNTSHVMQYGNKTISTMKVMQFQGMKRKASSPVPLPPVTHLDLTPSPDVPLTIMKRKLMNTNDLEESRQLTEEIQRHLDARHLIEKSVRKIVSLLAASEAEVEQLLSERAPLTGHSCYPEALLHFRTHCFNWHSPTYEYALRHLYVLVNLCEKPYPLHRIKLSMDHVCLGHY
Description: Cells were collected, washed twice with PBS and lysed in Lysis Buffer (20 mM citric acid, 60 mM disodium hydrogen orthophosphate, 1 mM EDTA, 0.1% CHAPS, pH 5.8). […] Data were analysed with GraFit version 5.0.11 software package.
δ-secretaseactivity assay.

[4] = Liver microsomal stability, human; details: Human microsomes, 30 min, 37 °C
Description: (§2) Supplementary Table 4: Liver microsomal stability
(§3) Compound Species Mean Remaining Parent Mean Remaining Parent
(§4) (with NADPH) (NADPH-free)
(§5) The test agents were incubated in duplicate with microsomes at 37 °C for 30 min. The reaction contained microsomal protein in 100 mM potassium phosphate, 2 mM NADPH, 3 mM MgCl2, pH 7.4. A control was run for each test agent omitting NADPH to detect NADPH-free degradation. Data are reported as % remaining of parent compound. ND, Peak not detected due to bioanalysis issue (poor ionization).

[5] = target: T3, caspase-8 (Homo sapiens, UniProt Q14790); assay: IC50 assay with recombinant caspase-8; type: biochemical; details: for IC50: mean±s.d.
T3 construct: purchased Millipore (Billerica, MA)
T3 sequence (Q14790 217-374 limits assumed, species assumed): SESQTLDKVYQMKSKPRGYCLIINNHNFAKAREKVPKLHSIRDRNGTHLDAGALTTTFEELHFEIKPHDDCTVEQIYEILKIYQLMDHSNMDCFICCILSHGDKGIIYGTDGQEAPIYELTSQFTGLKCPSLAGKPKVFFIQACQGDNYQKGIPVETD
T3 sequence (Q14790 385-479 limits assumed, species assumed): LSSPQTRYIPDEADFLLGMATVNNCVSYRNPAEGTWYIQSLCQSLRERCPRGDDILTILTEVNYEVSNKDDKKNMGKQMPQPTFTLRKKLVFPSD
Description: Caspase-3 and 8 – The enzyme was pre-incubated with inhibitor in assay buffer (100 mM HEPES pH 7.4, 0.1% CHAPS, 10% Sucrose) for 10 min at 37 °C.
as §1

[6] = BBB-PAMPA permeability assay; type: in vitro ADME; details: for effective permeability Pe / Papp at 18 h: porcine brain lipid, 18 h; for Papp at 18 h: PAMPA, read-out: effective permeability Pe
Description: Supplementary Table 3: Caco-2 permeability and BBB-PAMPA permeability […]
For CaCo-2 permeability assay, cells were incubated with 10 µM of these reagents in buffers for 2 h, and the receiver side buffer is removed for analysis by LC/MS/MS. Efflux […]
For BBB-PAMPA permeability assay, the filter membrane was coated with 4 µl of a 20 mg ml-1 porcine brain lipid in dodecane. 200 µl of the compound solution was added to the donor well. The acceptor well was filled with 200 µl of transport buffer. The acceptor filter plate was carefully placed on to the donor plate to create […]
a sandwich. […] Samples of the donor and acceptor wells were analyzed by LC/MS/MS and the effective permeability (Pe) was calculated.
LLOQ: Lower Limit of Quantification; Papp: apparent permeability.

[7] = target: T4, cathepsin-S (Homo sapiens, UniProt P25774); assay: IC50 assay with recombinant cathepsin-S; type: biochemical; details: mean±s.d.
T4 construct: purchased Athens Research and Technology (Athens, GA)
T4 sequence (P25774 115-331, species assumed): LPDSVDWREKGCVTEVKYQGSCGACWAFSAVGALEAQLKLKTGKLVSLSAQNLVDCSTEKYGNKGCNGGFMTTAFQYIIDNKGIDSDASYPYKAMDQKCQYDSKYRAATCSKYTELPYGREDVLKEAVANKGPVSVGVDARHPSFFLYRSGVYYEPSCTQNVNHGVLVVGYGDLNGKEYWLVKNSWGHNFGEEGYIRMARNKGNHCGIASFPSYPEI
Description: Cathepsin-S – 100 nM enzyme was pre-incubated with inhibitor in assay buffer (100 mM NaH2PO4 pH 6.5, 100 mM NaCl) for 10 min at 37 °C. The reaction was initiated on addition of 25 μM substrate (Boc-Val-Leu-Lys-AMC (Bachem).
as §1

[8] = Liver microsomal stability, mouse; details: Mouse microsomes, 30 min, 37 °C
Description: as §2, §3, §4, §5

[9] = target: T5, CYP1A2 (Homo sapiens, UniProt P05177); assay: CYP inhibition screening in microsomes; details: pH 7.4
T5 sequence (P05177 1-516): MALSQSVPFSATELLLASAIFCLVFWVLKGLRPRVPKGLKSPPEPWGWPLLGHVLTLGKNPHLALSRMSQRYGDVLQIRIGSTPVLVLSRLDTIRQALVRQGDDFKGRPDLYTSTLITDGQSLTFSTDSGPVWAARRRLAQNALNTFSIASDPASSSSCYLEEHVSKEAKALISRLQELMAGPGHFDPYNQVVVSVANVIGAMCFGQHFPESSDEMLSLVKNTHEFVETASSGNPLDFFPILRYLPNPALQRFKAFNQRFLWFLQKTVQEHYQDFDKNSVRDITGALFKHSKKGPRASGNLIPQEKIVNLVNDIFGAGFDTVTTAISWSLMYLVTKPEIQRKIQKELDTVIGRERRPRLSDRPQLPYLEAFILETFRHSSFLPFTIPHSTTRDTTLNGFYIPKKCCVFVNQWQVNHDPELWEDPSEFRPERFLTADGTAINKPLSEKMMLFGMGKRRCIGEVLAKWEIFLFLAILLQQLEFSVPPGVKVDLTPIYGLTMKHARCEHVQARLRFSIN

[10] = purified recombinant enzyme, mean±s.d., read-out: IC50 AEP (δ-secretase)

Sequence of CYP2C9 (P11712 whole entry): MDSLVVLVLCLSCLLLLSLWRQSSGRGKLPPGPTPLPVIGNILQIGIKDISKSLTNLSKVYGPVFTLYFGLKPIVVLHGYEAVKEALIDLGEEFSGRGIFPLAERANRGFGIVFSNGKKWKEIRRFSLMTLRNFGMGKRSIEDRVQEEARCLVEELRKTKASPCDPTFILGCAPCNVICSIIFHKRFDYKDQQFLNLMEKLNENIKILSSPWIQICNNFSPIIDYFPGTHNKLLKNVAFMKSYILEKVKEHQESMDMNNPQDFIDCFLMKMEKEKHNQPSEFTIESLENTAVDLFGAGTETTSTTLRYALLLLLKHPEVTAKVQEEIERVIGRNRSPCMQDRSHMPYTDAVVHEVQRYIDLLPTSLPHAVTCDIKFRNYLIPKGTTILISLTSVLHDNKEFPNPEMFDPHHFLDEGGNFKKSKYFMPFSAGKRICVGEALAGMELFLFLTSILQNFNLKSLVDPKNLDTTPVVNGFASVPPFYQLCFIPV

Row | SMILES | inhibition at 10 min, 3 µM [1] | inhibition at 10 min, 10 µM [1] | IC50 [2, 10] | IC50 [3] | Mean Remaining Parent (NADPH-free) [4] | Mean Remaining Parent (with NADPH) [4] | IC50 [5] | effective permeability Pe [6] | IC50 [7] | Mean Remaining Parent (NADPH-free) [8] | Mean Remaining Parent (with NADPH) [8] | inhibition at 10 min, 3 µM [9] | inhibition at 10 min, 10 µM [9] | IC50 ([2]; purified active δ-secretase, read-out: IC50 / potency toward δ-secretase) | selectivity for δ-secretase compared to caspase-8 [5] | BBB-PAMPA permeability / BBB penetration in words [6] | Papp at 18 h [6]
1 | Cc1cccc(NCc2ccc(O)c3ncccc23)c1C [compound 12] | 4.3% | -2.7% | 280 ± 20 nM | 430 ± 210 nM | 1% | 1% | > 200000 nM | < LLOQ | > 200000 nM | 0% | 1% | 28.4% | 44.5% | – | – | – | –
2 | Cn1c(=O)[nH]c(=O)c2c1nc(S)n2CC(O)COc1ccc(Cl)cc1 (stereo not shown) [compound 38] | 15.6% | 17.1% | 370 ± 60 nM | 110 ± 50 nM | 107% | 88% | 76100 ± 8120 nM | – | > 200000 nM | 99% | 98% | -7.6% | 10.5% | ~370 nM | at least 80 fold | barely penetrate the BBB | 0.007 ×10⁻⁶ cm/s
3 | Nc1ccc(N2CCOCC2)c2nonc12 [compound 11, 7-(morpholin-4-yl)-2,1,3-benzoxadiazol-4-amine] | 4.3% | 5.6% | – | – | 93% | 76% | 86700 ± 10300 nM | – | > 200000 nM | 103% | 20% | 13.1% | 37% | – | – | detected at high-levels | > 25 ×10⁻⁶ cm/s
4 | COc1ccc(N2CCN(C(c3ccc(N(C)C)cc3)c3nnnn3C(C)(C)C)CC2)cc1 (stereo not shown) [compound 31] | 47.8% | 69.2% | 260 ± 30 nM | 670 ± 400 nM | 75% | 12% | > 100000 nM | < LLOQ | > 100000 nM | 86% | 16% | 13.5% | 10.3% | – | – | barely penetrate the BBB | –
